Test results taken from patent US20230233470A1, “Formulations” (ViiV Healthcare Company, priority 2020, published 2023).
Values belong to the compound of their own block, whether it stands above or below them.

Columns and labels:
[1] = Dissolution (% released), USP <711> and Ph. Eur. 2.9.3; format: physicochemical; conditions: active released from Triumeq Dispersible Bilayer Tablet; Q = 75% at 60 minutes
[2] = Relative bioavailability: Trii Dispersible tablet (dispersed or direct to mouth) vs adult TRIUMEQ tablet; format: in vivo; conditions: for differences in exposure: dispersed or direct to mouth vs. the IR tablet
[3] = Initial relative bioavailability PK study: Triumeq bilayer tablets dispersed in Contrex or purified water vs 4 x 10 mg DTG tablet + Kivexa; format: in vivo; conditions: for differences in exposure across all 5 arms: Treatments A-E; for AUC0-inf (h*ug/mL) Ratio / Cmax (ug/mL) Ratio: DTG; for impact of DTG solubility on DTG levels in plasma / PK: solubility range studied 16-70%
Description: Treatment (TRT) A: Reference 4×10 mg DTG tablet+Kivexa (ABC 600 mg/3TC 300 mg)
(§1) Treatment B-E: Triumeq bilayer tablets—4 tablets (10 mg DTG/ABC 150 mg/3TC 75 mg) dispersed in high mineral content water (Contrex)* or purified water.
(§2) *Contrex water contains a very high level of minerals including calcium, purified water is mineral free.

[4] = Estimate of DTG solubility in the dispersion; format: physicochemical; conditions: for solubility when dispersed: Triumeq bilayer tablets dispersed in water
Description: as §1, §2

[5] = B vs A: bi-layer tablet in Contrex water, immediate, vs 4 × 10 mg tablet + Kivexa
[6] = C vs A: bi-layer tablet in Contrex water, 30 mins, vs control
[7] = D vs A: bi-layer tablet in purified water, immediate, vs control
[8] = E vs A: bi-layer tablet in purified water, 30 mins, vs control

Dissolution (% released) [1]: 101 (99-104) %
differences in exposure [2]: No differences in exposure
differences in exposure across all 5 arms [3]: no differences in exposure
solubility when dispersed [4]: fully soluble
SMILES: Nc1nc(NC2CC2)c2ncn([C@H]3C=C[C@@H](CO)C3)c2n1 [Abacavir, (1S,4R-4-[2-amino-6-cyclopropylamino)-9H-purin-9-yl]-2-cyclopentene-1-methanol hemisulfate]

Dissolution (% released) [1]: 91 (87-95) %
exposure, fold ([2]; dosed as dispersion vs adult immediate release tablet): ~1.6 ×
exposure, fold ([2]; dosed direct to mouth vs adult immediate release tablet): ~1.25 ×
AUC0-inf (h*ug/mL) Ratio [3, 5]: 1.56
Cmax (ug/mL) Ratio [3, 5]: 1.59
AUC0-inf (h*ug/mL) Ratio [3, 6]: 1.53
Cmax (ug/mL) Ratio [3, 6]: 1.56
AUC0-inf (h*ug/mL) Ratio [3, 7]: 1.58
Cmax (ug/mL) Ratio [3, 7]: 1.56
AUC0-inf (h*ug/mL) Ratio [3, 8]: 1.54
Cmax (ug/mL) Ratio [3, 8]: 1.58
exposure compared to the reference, fold ([3]; bilayer tablets dispersed (B-E) vs reference 4×10 mg DTG tablet + Kivexa): ~1.6 ×
impact of DTG solubility on DTG levels in plasma / PK [3]: no impact on PK
impact of DTG solubility on DTG levels in plasma / PK ([3]; listed as DTG): does not impact
Estimate of DTG solubility ([4]; Treatment B: Bi-layer tablet, Contrex water (Ca++) plus flavour and sweetener, dispersion time immediate): Approx. 45% DTG
Estimate of DTG solubility ([4]; Treatment C: Bi-layer tablet, Contrex water (Ca++) plus flavour and sweetener, dispersion time 30 mins): Approx. 45% DTG
Estimate of DTG solubility ([4]; Treatment D: Bi-layer tablet, purified water plus flavour and sweetener, dispersion time immediate): Approx. 70% DTG
Estimate of DTG solubility ([4]; Treatment E: Bi-layer tablet, purified water plus flavour and sweetener, dispersion time 30 mins): Approx. 16% DTG
SMILES: C[C@@H]1CCO[C@H]2Cn3cc(C(=O)NCc4ccc(F)cc4F)c(=O)c(O)c3C(=O)N12 [Dolutegravir, (4R,12aS)-N-[(2,4-difluorophenyl)methyl]-7-hydroxy-4-methyl-6,8-dioxo-3,4,12,12a-tetrahydro-2H-pyrido[5,6]pyrazino[2,6-b][1,3]oxazine-9-carboxamide]

Dissolution (% released) [1]: 99 (92-106) %
differences in exposure [2]: No differences in exposure
differences in exposure across all 5 arms [3]: no differences in exposure
solubility when dispersed [4]: fully soluble
SMILES: Nc1ccn([C@@H]2CS[C@H](CO)O2)c(=O)n1 [Lamivudine, 2′,3′-dideoxy-3′-thiacytidine]
